# Literature values in patent publication US7550449B2, “Carba cyclic phosphatidic acid derivative” (priority 2002, dated 2009).
# Tests used:
# MM1 cells = details: within several minutes of addition, effect not lost with LPA, literature
# [1] = test system: human fibrosarcoma cells (HT-1080); details: cells require neither serum nor LPA for invasion; literature
# [2] = test system: MM1 cells, highly invasive clones of a rat ascites hepatoma cell line (AH-130); details: literature (Mukai et al. 1999)
# Rho = details: literature (Mukai et al. 2000)
smiles,measurement,setting,value
CCCCCCCCCCCCCCCC(=O)OCC1COP(=O)(O)O1 (stereo not shown) [Pal-cPA],intracellular cAMP concentration,MM1 cells,elevated
same,suppression of invasion of HT-1080 cells,[1],significantly suppressed
same,invasion suppressing activity among cPA derivatives with different fatty acids at sn-1,[2],strongest invasion suppressing activity
same,LPA-mediated Rho activation,Rho,inhibited
